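Each compound was tested at five concentrations against cells in 96-well plates for 48 hours. Abbreviation: GI50, concentration required for 50% inhibition of growth. TGI is the concentration that stops growth completely.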

One test concerns SK-MEL-28 melanoma. The test can be described thus: growth of human tumour cells (NCI), 48 h.
In the case of `Cc1c(S(=O)(=O)/N=C(\N)Nc2ccc(Cl)cc2)sc2ccc(Cl)cc12`, the TGI is 48.5 µM.

`NNC(=O)c1ccc[n+](CCc2ccccc2)c1` returned a TGI greater than 100 µM.

Compound `CC(=O)N/N=C1\NC(=O)C[C@H]2[C@@H]3CC=C4C[C@@H](OC(C)=O)CC[C@]4(C)[C@H]3CC[C@]12C` came in with a TGI of 33 µM.

Compound `C=C[C@@H]1C(CO)=CCC2[C@H]1CCC1C(C)(C)C(=O)CC[C@]21C` (some centres not stated) showed a TGI greater than 100 µM.

`COc1ccc2cc3c4cc5c(cc4cc[n+]3cc2c1OC)OCO5` yielded a TGI of 19.4 µM.

In turn, `CCN(CCO)CC1COc2ccccc2O1` (configuration not stated) registered a TGI greater than 100 µM.

Compound `C/C(CC1C2CCCC1C2)=N\NC(N)=O` (configuration not stated) gave a TGI greater than 100 µM.

In turn, `N#CC(C#N)=CNC(=S)c1ccncc1` gave a TGI greater than 100 µM.

Take `O=C1/C(=C\c2cccc(Oc3ccccc3)c2)S(=O)(=O)C(c2ccccc2)N1Cc1ccccc1` (configuration not stated): the TGI was found to be 93.2 µM.

`CCN(CC)CCOc1ccc(N2C(=O)c3cc(OC)c(OC)cc3C2=O)cc1`: the TGI was greater than 100 µM.

Compound `COc1ccc(C#CC(=O)O)c(OC)c1` came in with a TGI greater than 100 µM.

Compound `CSc1cc(Cl)c(C)cc1S(=O)(=O)NC(=O)NNc1ccc(Cl)cc1` displayed a TGI greater than 100 µM.

For `CCOC(=O)NC(=S)NN(C)C1=NCC(C)(C)S1`, the TGI is greater than 100 µM.

Take `O=c1c2cc3c(cc2[nH]c2ncccc12)OCO3`: the TGI is greater than 10 µM.

For the next test, the system named is OVCAR-5 ovarian. The test is described as follows: growth of human tumour cells (NCI), 48 h.
`CS(=O)(=O)OCCn1c(=O)n(CCOS(C)(=O)=O)c(=O)n(CCOS(C)(=O)=O)c1=O`: the TGI is greater than 100 µM.

`O=P(c1ccccc1)(c1ccccc1)N1O[C@@H](c2ccccc2)C=C[C@H]1c1ccccc1` showed a TGI of 32.1 µM.

On to `CC(C)(C)NC(=O)/C(=C\Sc1ccccc1)c1ccc2c(c1)OCO2`, for which the TGI was greater than 100 µM.

The compound `COc1nc(C#CCC(C)O)nc(OC)n1` (configuration not stated) yielded a TGI of 33.3 µM.

`COC(=O)[C@]12CC[C@H]3CN(C(=O)OCc4ccccc4)[C@H]([C@H]31)[C@H](c1ccco1)N2S(=O)(=O)c1ccc(C)cc1` had a TGI greater than 100 µM.

The compound `Cc1c2c(n(CCc3ccc(Cl)cc3)c1C)NN=C(C#N)S2(=O)=O` showed a TGI greater than 100 µM.

In turn, `CCN(C(=S)N[C@@H](Cc1ccccc1)C(=O)N[C@@H](CC(C)C)C(=O)OC)c1ccccc1` came in with a TGI greater than 100 µM.

As for `CCCn1c(CN(Cc2nc3ccccc3n2CCC)Cc2nc3ccccc3n2CCC)nc2ccccc21`, the TGI is greater than 89.9 µM.

For the compound `CSc1c(C#N)c(N)n2c1C(=O)N(c1ccccc1)C2=S`, the TGI is greater than 100 µM.

`COc1ccc2cc(-c3ccc(-c4ccc(C(=N)N)s4)s3)ccc2c1`: the GI50 is 2.11 µM and the TGI came to 4.18 µM.

Consider `N#CCCN(CCC#N)c1ccc(/C=C2\N=C(c3ccccc3)N(c3ccc(Cl)cc3)C2=O)cc1`, for which the TGI was greater than 100 µM.

In turn, `Cc1c(S(=O)(=O)/N=C(\N)Nc2ccc(Cl)cc2)sc2ccc(Cl)cc12` gave a TGI of 38.1 µM.

`NNC(=O)c1ccc[n+](CCc2ccccc2)c1` displayed a TGI greater than 100 µM.

Regarding `CC(=O)N/N=C1\NC(=O)C[C@H]2[C@@H]3CC=C4C[C@@H](OC(C)=O)CC[C@]4(C)[C@H]3CC[C@]12C`, the TGI is greater than 100 µM.

As for `C=C[C@@H]1C(CO)=CCC2[C@H]1CCC1C(C)(C)C(=O)CC[C@]21C` (some centres not stated), the TGI was greater than 100 µM.

Compound `COc1ccc2cc3c4cc5c(cc4cc[n+]3cc2c1OC)OCO5` displayed a TGI greater than 100 µM.

Turning to `CCN(CCO)CC1COc2ccccc2O1` (configuration not stated), the TGI is greater than 100 µM.

As to `COc1ccc2nc3cc(Cl)ccc3c(NCCCNCCCNc3c4ccc(Cl)cc4nc4ccc(OC)cc34)c2c1`, the TGI was 0.237 µM.

With `C/C(CC1C2CCCC1C2)=N\NC(N)=O` (configuration not stated), the TGI is greater than 100 µM.

In turn, `N#CC(C#N)=CNC(=S)c1ccncc1` showed a TGI greater than 100 µM.

Take `Clc1ccc(-c2nn3c(-c4ccncc4)nnc3s2)cc1`: the TGI was greater than 100 µM.

The compound `O=C1/C(=C\c2cccc(Oc3ccccc3)c2)S(=O)(=O)C(c2ccccc2)N1Cc1ccccc1` (configuration not stated) had a TGI greater than 100 µM.

Compound `CCN(CC)CCOc1ccc(N2C(=O)c3cc(OC)c(OC)cc3C2=O)cc1` had a TGI greater than 100 µM.

As for `COc1ccc(C#CC(=O)O)c(OC)c1`, the TGI was greater than 100 µM.

In turn, `CSc1cc(Cl)c(C)cc1S(=O)(=O)NC(=O)NNc1ccc(Cl)cc1` displayed a TGI greater than 100 µM.

Compound `CCOC(=O)NC(=S)NN(C)C1=NCC(C)(C)S1` had a TGI greater than 100 µM.

In turn, `O=c1c2cc3c(cc2[nH]c2ncccc12)OCO3` had a TGI greater than 10 µM.

The test system of another test is LOX IMVI melanoma. The test is described as follows: growth of human tumour cells (NCI), 48 h.
`CS(=O)(=O)OCCn1c(=O)n(CCOS(C)(=O)=O)c(=O)n(CCOS(C)(=O)=O)c1=O` gave a TGI greater than 100 µM.

`O=P(c1ccccc1)(c1ccccc1)N1O[C@@H](c2ccccc2)C=C[C@H]1c1ccccc1` yielded a TGI of 24.1 µM.

With `CC(C)(C)NC(=O)/C(=C\Sc1ccccc1)c1ccc2c(c1)OCO2`, the TGI came out at 48.9 µM.

Consider `COc1nc(C#CCC(C)O)nc(OC)n1` (configuration not stated), for which the TGI is 40.6 µM.

With `COC(=O)[C@]12CC[C@H]3CN(C(=O)OCc4ccccc4)[C@H]([C@H]31)[C@H](c1ccco1)N2S(=O)(=O)c1ccc(C)cc1`, the TGI is 32.3 µM.

Consider `Cc1c2c(n(CCc3ccc(Cl)cc3)c1C)NN=C(C#N)S2(=O)=O`, for which the TGI was greater than 100 µM.

Consider `CCN(C(=S)N[C@@H](Cc1ccccc1)C(=O)N[C@@H](CC(C)C)C(=O)OC)c1ccccc1`, for which the TGI is greater than 100 µM.

Compound `CCCn1c(CN(Cc2nc3ccccc3n2CCC)Cc2nc3ccccc3n2CCC)nc2ccccc21` yielded a TGI of 18.9 µM.

The compound `CSc1c(C#N)c(N)n2c1C(=O)N(c1ccccc1)C2=S` displayed a TGI greater than 100 µM.

As for `COc1ccc2cc(-c3ccc(-c4ccc(C(=N)N)s4)s3)ccc2c1`, the GI50 was 1.95 µM and the TGI worked out at 3.82 µM.

The compound `N#CCCN(CCC#N)c1ccc(/C=C2\N=C(c3ccccc3)N(c3ccc(Cl)cc3)C2=O)cc1` came in with a TGI greater than 100 µM.

On to `Cc1c(S(=O)(=O)/N=C(\N)Nc2ccc(Cl)cc2)sc2ccc(Cl)cc12`, for which the TGI worked out at 36.3 µM.

In the case of `NNC(=O)c1ccc[n+](CCc2ccccc2)c1`, the TGI was greater than 100 µM.

On to `CC(=O)N/N=C1\NC(=O)C[C@H]2[C@@H]3CC=C4C[C@@H](OC(C)=O)CC[C@]4(C)[C@H]3CC[C@]12C`, for which the TGI was greater than 100 µM.

Regarding `C=C[C@@H]1C(CO)=CCC2[C@H]1CCC1C(C)(C)C(=O)CC[C@]21C` (some centres not stated), the TGI is greater than 100 µM.

In turn, `COc1ccc2cc3c4cc5c(cc4cc[n+]3cc2c1OC)OCO5` showed a TGI greater than 100 µM.

For `CCN(CCO)CC1COc2ccccc2O1` (configuration not stated), the TGI was greater than 100 µM.

On to `COc1ccc2nc3cc(Cl)ccc3c(NCCCNCCCNc3c4ccc(Cl)cc4nc4ccc(OC)cc34)c2c1`, for which the TGI came to 0.0145 µM.

Turning to `C/C(CC1C2CCCC1C2)=N\NC(N)=O` (configuration not stated), the TGI was greater than 100 µM.

`N#CC(C#N)=CNC(=S)c1ccncc1` registered a TGI greater than 100 µM.

`Clc1ccc(-c2nn3c(-c4ccncc4)nnc3s2)cc1` yielded a TGI greater than 100 µM.

The compound `O=C1/C(=C\c2cccc(Oc3ccccc3)c2)S(=O)(=O)C(c2ccccc2)N1Cc1ccccc1` (configuration not stated) yielded a TGI of 62.9 µM.

With `CCN(CC)CCOc1ccc(N2C(=O)c3cc(OC)c(OC)cc3C2=O)cc1`, the TGI is greater than 100 µM.

Consider `COc1ccc(C#CC(=O)O)c(OC)c1`, for which the TGI was greater than 100 µM.
